Assay results reported in patent publication US11248010B2, “Compounds, compositions, and methods for modulating CFTR” (Proteostasis Therapeutics, Inc., priority 2016, dated 2022).

biological target: T1, ΔF508-CFTR (Homo sapiens, UniProt P13569, DEL508-508); experiment: Ussing measurements (CFTR activity assay); format: cell-based; conditions: compound at 1 uM; activity relative to a corrector (VX-809 (3 uM)); primary lung epithelial cells (hBEs) homozygous for ΔF508; CFTRinh-172-inhibitable short-circuit current
T1 construct: primary lung epithelial cells (hBEs) homozygous for the Cystic Fibrosis-causing ΔF508 mutation are differentiated; endogenous in cells; host or cells: primary human bronchial epithelial cells (hBEs) homozygous for ΔF508, differentiated at an air-liquid interface
T1 sequence (P13569 with tags, fused parts or gaps DEL508-508): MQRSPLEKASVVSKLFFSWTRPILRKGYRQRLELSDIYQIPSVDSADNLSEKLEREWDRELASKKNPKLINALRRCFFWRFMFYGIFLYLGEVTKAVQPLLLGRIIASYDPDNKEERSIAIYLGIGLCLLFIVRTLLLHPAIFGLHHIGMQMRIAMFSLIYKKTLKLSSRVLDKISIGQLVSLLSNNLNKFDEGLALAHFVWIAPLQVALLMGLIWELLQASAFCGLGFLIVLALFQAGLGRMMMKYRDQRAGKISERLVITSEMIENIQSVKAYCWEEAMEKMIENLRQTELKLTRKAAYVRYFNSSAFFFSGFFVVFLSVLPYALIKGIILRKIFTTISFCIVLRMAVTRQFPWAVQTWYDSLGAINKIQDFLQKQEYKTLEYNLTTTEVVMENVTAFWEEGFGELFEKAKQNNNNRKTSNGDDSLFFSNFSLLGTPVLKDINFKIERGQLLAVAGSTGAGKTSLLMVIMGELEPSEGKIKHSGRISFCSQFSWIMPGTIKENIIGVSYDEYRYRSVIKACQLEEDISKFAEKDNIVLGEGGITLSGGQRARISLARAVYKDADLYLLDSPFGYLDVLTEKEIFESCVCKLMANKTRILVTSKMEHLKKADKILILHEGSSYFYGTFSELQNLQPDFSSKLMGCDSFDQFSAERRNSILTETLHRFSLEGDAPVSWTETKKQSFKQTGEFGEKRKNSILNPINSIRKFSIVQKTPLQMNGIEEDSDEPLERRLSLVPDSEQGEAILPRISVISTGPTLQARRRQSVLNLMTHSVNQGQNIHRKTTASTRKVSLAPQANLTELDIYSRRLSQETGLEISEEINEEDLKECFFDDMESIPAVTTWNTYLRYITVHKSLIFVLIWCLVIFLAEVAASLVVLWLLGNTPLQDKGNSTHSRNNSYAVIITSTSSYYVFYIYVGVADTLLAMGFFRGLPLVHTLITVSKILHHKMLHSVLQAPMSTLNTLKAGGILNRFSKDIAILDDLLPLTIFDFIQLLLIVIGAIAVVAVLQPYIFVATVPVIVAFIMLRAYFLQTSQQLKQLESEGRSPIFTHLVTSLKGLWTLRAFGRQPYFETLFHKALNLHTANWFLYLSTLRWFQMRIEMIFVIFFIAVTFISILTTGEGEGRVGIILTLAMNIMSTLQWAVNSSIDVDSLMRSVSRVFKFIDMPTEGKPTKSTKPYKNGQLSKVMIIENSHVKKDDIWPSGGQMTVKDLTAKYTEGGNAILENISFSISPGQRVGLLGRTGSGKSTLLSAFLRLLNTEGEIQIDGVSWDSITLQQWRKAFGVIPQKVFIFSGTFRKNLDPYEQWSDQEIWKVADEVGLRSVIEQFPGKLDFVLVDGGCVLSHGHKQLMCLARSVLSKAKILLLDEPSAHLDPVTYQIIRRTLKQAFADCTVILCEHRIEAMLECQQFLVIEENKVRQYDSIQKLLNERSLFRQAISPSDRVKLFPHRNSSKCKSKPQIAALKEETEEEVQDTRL
Experimental: As discussed above, Ussing measurements are used to measure CFTR activity. In this method, primary lung epithelial cells (hBEs) homozygous for the Cystic Fibrosis-causing ΔF508 mutation are differentiated for a minimum of 4 weeks in an air-liquid interface on SnapWell filter plates prior to the Ussing measurements. Cells are apically mucus-washed for 30 minutes prior to treatment with compounds. The basolateral media is removed and replaced with media containing the compound of interest diluted to its final concentration from DMSO stocks. Treated cells are incubated at 37° C. and 5% CO2 for 24 hours. At the end of the treatment period, the cells on filters are transferred to the Ussing chamber and equilibrated for 30 minutes. The short-circuit current is measured in voltage clamp-mode (Vhold=0 mV), and the entire assay is conducted at a temperature of 36° C.-36.5° C. Once the voltages are stabilized, the chambers are clamped, and data is recorded by pulse readings every 5 seconds. Following baseline current stabilization, the following additions can be applied and the changes in current and resistance of the cells can be monitored:
1. Benzamil to the apical chamber to inhibit ENaC sodium channel.
2. Forskolin to both chambers to activate ΔF508-CFTR by phosphorylation.
3. VX-770 to the apical chamber to potentiate ΔF508-CFTR channel opening.
4. CFTRinh-172 to the apical chamber to inhibit ΔF508-CFTR Cl— conductance.
The inhibitable current (that current that is blocked by CFTRinh-172) is measured as the specific activity of the ΔF508-CFTR channel, and increases in response to compound in this activity over that observed in vehicle-treated samples are identified as the correction of ΔF508-CFTR function imparted by the compound tested.
(+ indicates activity <200% of a corrector (VX-809 (3 uM)) with compound at 1 uM; ++ indicates activity >200% of a corrector (VX-809 (3 uM)) with compound at 1 uM.

Structure (SMILES) | Activity
CC[Si](C)(C)c1cc(C(C)(C)C)c(NC(=O)c2c[nH]c3ccccc3c2=O)cc1O [Compound 2, N-[2-tert-Butyl-4-(ethyldimethylsilyl)-5-hydroxyphenyl]-4-oxo-1,4-dihydroquinoline-3-carboxamide] | ++ (activity >200% of a corrector (VX-809 (3 uM)) with compound at 1 uM)
C[Si](C)(C)c1cc([Si](C)(C)C)c(NC(=O)c2c[nH]c3ccccc3c2=O)cc1O [Compound 11, N-(5-Hydroxy-2,4-bis(trimethylsilyl)phenyl)-4-oxo-1,4-dihydroquinoline-3-carboxamide] | ++ (activity >200% of a corrector (VX-809 (3 uM)) with compound at 1 uM)
C[Si](C)(C)c1ccc(NC(=O)c2c[nH]c3ccccc3c2=O)cc1O [Compound 17, N-(3-Hydroxy-4-(trimethylsilyl)phenyl)-4-oxo-1,4-dihydroquinoline-3-carboxamide] | ++ (activity >200% of a corrector (VX-809 (3 uM)) with compound at 1 uM)
CC(C)[Si](C)(C)c1cc(C(C)(C)C)c(NC(=O)c2c[nH]c3ccccc3c2=O)cc1O [Compound 6, N-[2-tert-Butyl-4-[dimethyl(propan-2-yl)silyl]-5-hydroxyphenyl]-4-oxo-1,4-dihydroquinoline-3-carboxamide] | ++ (activity >200% of a corrector (VX-809 (3 uM)) with compound at 1 uM)
CC(C)(C)c1cc([Si](C)(C)C)c(O)cc1NC(=O)c1c[nH]c2ccccc2c1=O [Compound 1, N-[2-tert-Butyl-5-hydroxy-4-(trimethylsilyl)phenyl]-4-oxo-1,4-dihydroquinoline-3-carboxamide] | ++ (activity >200% of a corrector (VX-809 (3 uM)) with compound at 1 uM)
CC(C)(C)c1cc([Si](C)(C)c2ccccc2)c(O)cc1NC(=O)c1c[nH]c2ccccc2c1=O [Compound 7, N-(2-(tert-Butyl)-4-(dimethyl(phenyl)silyl)-5-hydroxyphenyl)-4-oxo-1,4-dihydroquinoline-3-carboxamide] | ++ (activity >200% of a corrector (VX-809 (3 uM)) with compound at 1 uM)
CC(C)(C)c1cc([Si](C)(C)C(C)(C)C)c(O)cc1NC(=O)c1c[nH]c2ccccc2c1=O [Compound 5, N-(2-tert-Butyl-4-(tert-butyldimethylsilyl)-5-hydroxyphenyl)-4-oxo-1,4-dihydroquinoline-3-carboxamide] | ++ (activity >200% of a corrector (VX-809 (3 uM)) with compound at 1 uM)
C[Si](C)(C)c1cc(F)c(NC(=O)c2c[nH]c3ccccc3c2=O)cc1O [Compound 18, N-(2-Fluoro-5-hydroxy-4-(trimethylsilyl)phenyl)-4-oxo-1,4-dihydroquinoline-3-carboxamide] | ++ (activity >200% of a corrector (VX-809 (3 uM)) with compound at 1 uM)
CC[Si](CC)(CC)c1cc(C(C)(C)C)c(NC(=O)c2c[nH]c3ccccc3c2=O)cc1O [Compound 4, N-(2-(tert-Butyl)-5-hydroxy-4-(triethylsilyl)phenyl)-4-oxo-1,4-dihydroquinoline-3-carboxamide] | + (activity <200% of a corrector (VX-809 (3 uM)) with compound at 1 uM)
CC(C)(C)c1cc([Si](C)(C)C)c(NC(=O)c2c[nH]c3ccccc3c2=O)cc1O [Compound 8, N-[4-tert-Butyl-5-hydroxy-2-(trimethylsilyl)phenyl]-4-oxo-1,4-dihydroquinoline-3-carboxamide] | ++ (activity >200% of a corrector (VX-809 (3 uM)) with compound at 1 uM)
CC(C)(C)c1cc([Si](C)(C)C(C)(C)C)c(NC(=O)c2c[nH]c3ccccc3c2=O)cc1O [Compound 10, N-(4-(tert-Butyl)-2-(tert-butyldimethylsilyl)-5-hydroxyphenyl)-4-oxo-1,4-dihydroquinoline-3-carboxamide] | ++ (activity >200% of a corrector (VX-809 (3 uM)) with compound at 1 uM)
CC[Si](C)(CC)c1cc(C(C)(C)C)c(NC(=O)c2c[nH]c3ccccc3c2=O)cc1O [Compound 3, N-[2-tert-Butyl-4-[diethyl(methyl)silyl]-5-hydroxyphenyl]-4-oxo-1,4-dihydroquinoline-3-carboxamide] | ++ (activity >200% of a corrector (VX-809 (3 uM)) with compound at 1 uM)
[2H]C([2H])([2H])[Si](c1cc([Si](C([2H])([2H])[2H])(C([2H])([2H])[2H])C([2H])([2H])[2H])c(NC(=O)c2c[nH]c3ccccc3c2=O)cc1O)(C([2H])([2H])[2H])C([2H])([2H])[2H] [Compound 13, N-(5-Hydroxy-2,4-bis(tris(methyl-d3)silyl)phenyl)-4-oxo-1,4-dihydroquinoline-3-carboxamide] | ++ (activity >200% of a corrector (VX-809 (3 uM)) with compound at 1 uM)
[2H]C([2H])([2H])[Si](c1cc(C(C)(C)C)c(NC(=O)c2c[nH]c3ccccc3c2=O)cc1O)(C([2H])([2H])[2H])C([2H])([2H])[2H] [Compound 12, N-(2-(tert-Butyl)-5-hydroxy-4-(tris(methyl-d3)silyl)phenyl)-4-oxo-1,4-dihydroquinoline-3-carboxamide] | ++ (activity >200% of a corrector (VX-809 (3 uM)) with compound at 1 uM)
C[Si](C)(C)c1cc(C(F)(F)F)c(NC(=O)c2c[nH]c3ccccc3c2=O)cc1O [Compound 19, N-(5-Hydroxy-2-(trifluoromethyl)-4-(trimethylsilyl)phenyl)-4-oxo-1,4-dihydroquinoline-3-carboxamide] | ++ (activity >200% of a corrector (VX-809 (3 uM)) with compound at 1 uM)
